Values quoted from earlier work, collected in paper PMC3178464 (Bioorganic & medicinal chemistry, 2009).

System: ER

## 17α-ethynylestradiol [EE2]
  affinity for ER relative to E2: nearly three-fold higher affinity
